Measurements: ChEMBL document CHEMBL5442219

What was measured:
Conditions in all cases: Compound concentration 10 µM
[1] = target: T1, Muscarinic acetylcholine receptor M4 (Homo sapiens) (UniProt P08173)
T1 sequence (whole entry): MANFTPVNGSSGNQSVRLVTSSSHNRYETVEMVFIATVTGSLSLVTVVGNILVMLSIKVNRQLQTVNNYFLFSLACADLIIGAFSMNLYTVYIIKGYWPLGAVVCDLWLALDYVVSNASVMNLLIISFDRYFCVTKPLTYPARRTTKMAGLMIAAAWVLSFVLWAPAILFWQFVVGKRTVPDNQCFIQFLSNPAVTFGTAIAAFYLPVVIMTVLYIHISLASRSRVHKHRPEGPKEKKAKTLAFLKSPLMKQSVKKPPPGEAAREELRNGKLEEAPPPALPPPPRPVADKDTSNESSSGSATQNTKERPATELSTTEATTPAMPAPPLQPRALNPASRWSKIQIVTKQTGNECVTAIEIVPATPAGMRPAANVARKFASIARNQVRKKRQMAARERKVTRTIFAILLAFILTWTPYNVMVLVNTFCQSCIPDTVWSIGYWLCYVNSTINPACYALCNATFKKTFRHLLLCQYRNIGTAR
Description: PDSP Primary Binding target: CHRM4 - Compounds are tested at 10 uM concentration, plate are incubated at room temperature in the dark for 90 minutes. Reaction are stopped by vacuum filtration onto 0.3% polyethyleneimine soaked filter mats using Filtermate harvester. Scintilation cocktail is then melted onto microwave-dried filters on a hot plate and the radio activity is counted in Microbia counter.

[2] = target: 5-hydroxytryptamine receptor 5A (Homo sapiens) (UniProt P47898)
5-hydroxytryptamine receptor 5A (Homo sapiens), sequence (P47898 whole entry): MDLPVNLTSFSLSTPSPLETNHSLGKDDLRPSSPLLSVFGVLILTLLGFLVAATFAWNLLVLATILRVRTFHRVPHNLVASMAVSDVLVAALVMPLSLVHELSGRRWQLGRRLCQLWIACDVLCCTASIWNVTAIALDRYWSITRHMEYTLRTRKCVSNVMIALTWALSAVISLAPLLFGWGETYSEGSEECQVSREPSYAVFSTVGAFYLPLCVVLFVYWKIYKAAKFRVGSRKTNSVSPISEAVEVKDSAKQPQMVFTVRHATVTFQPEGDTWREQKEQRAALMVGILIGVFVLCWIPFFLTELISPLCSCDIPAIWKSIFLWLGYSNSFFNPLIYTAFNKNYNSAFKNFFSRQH
Description: PDSP Primary Binding target: HTR5A - Compounds are tested at 10 uM concentration, plate are incubated at room temperature in the dark for 90 minutes. Reaction are stopped by vacuum filtration onto 0.3% polyethyleneimine soaked filter mats using Filtermate harvester. Scintilation cocktail is then melted onto microwave-dried filters on a hot plate and the radio activity is counted in Microbia counter.

[3] = target: Histamine H2 receptor (Homo sapiens) (UniProt P25021)
Histamine H2 receptor (Homo sapiens), sequence (P25021 whole entry): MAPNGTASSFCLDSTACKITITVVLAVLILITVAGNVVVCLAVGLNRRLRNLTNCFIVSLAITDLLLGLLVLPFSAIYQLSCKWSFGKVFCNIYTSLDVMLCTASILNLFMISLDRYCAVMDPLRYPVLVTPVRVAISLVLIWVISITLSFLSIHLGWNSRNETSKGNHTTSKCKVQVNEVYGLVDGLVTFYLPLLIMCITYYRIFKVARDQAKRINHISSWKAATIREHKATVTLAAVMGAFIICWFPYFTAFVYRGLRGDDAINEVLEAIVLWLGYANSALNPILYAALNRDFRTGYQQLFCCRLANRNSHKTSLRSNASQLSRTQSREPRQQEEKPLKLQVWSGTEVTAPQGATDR
Description: PDSP Primary Binding target: HRH2 - Compounds are tested at 10 uM concentration, plate are incubated at room temperature in the dark for 90 minutes. Reaction are stopped by vacuum filtration onto 0.3% polyethyleneimine soaked filter mats using Filtermate harvester. Scintilation cocktail is then melted onto microwave-dried filters on a hot plate and the radio activity is counted in Microbia counter.

[4] = target: Histamine H1 receptor (Homo sapiens) (UniProt P35367)
Histamine H1 receptor (Homo sapiens), sequence (P35367 whole entry): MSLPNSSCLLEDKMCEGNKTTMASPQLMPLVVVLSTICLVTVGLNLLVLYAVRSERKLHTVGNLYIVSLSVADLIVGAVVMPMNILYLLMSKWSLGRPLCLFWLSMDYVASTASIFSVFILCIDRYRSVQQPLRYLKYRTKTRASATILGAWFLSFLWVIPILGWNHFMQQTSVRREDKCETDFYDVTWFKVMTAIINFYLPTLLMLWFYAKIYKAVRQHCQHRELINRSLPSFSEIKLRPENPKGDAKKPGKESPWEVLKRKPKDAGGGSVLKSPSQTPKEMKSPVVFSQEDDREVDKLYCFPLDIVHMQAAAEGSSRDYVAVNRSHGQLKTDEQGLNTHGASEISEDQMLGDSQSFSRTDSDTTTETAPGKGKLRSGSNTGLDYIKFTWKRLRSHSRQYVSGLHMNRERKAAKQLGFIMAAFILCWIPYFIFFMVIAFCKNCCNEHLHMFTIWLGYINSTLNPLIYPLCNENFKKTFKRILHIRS
Description: PDSP Primary Binding target: HRH1 - Compounds are tested at 10 uM concentration, plate are incubated at room temperature in the dark for 90 minutes. Reaction are stopped by vacuum filtration onto 0.3% polyethyleneimine soaked filter mats using Filtermate harvester. Scintilation cocktail is then melted onto microwave-dried filters on a hot plate and the radio activity is counted in Microbia counter.

[5] = target: Translocator protein (Homo sapiens) (UniProt P30536)
Translocator protein (Homo sapiens), sequence (P30536 whole entry): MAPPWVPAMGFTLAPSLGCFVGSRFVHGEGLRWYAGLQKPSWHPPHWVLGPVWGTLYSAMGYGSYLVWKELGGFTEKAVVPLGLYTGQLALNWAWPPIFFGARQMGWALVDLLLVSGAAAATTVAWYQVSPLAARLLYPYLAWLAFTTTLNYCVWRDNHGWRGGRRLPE
Description: PDSP Primary Binding target: TSPO - Compounds are tested at 10 uM concentration, plate are incubated at room temperature in the dark for 90 minutes. Reaction are stopped by vacuum filtration onto 0.3% polyethyleneimine soaked filter mats using Filtermate harvester. Scintilation cocktail is then melted onto microwave-dried filters on a hot plate and the radio activity is counted in Microbia counter.

[6] = target: T2, Alpha-2A adrenergic receptor (Homo sapiens) (UniProt P08913)
T2 sequence (whole entry): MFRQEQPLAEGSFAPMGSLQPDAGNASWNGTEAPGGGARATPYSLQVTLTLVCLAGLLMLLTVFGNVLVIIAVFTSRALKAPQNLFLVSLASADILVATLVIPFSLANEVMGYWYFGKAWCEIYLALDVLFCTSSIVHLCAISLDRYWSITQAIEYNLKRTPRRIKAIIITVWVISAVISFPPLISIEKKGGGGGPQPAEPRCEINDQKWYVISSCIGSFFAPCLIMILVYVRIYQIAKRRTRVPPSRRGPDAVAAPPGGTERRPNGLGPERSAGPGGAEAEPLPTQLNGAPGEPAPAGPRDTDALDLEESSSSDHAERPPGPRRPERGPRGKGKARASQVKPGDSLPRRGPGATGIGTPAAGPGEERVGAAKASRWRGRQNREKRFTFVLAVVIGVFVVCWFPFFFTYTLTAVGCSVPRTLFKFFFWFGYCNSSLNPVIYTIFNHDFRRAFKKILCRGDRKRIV
Description: PDSP Primary Binding target: ADRA2A - Compounds are tested at 10 uM concentration, plate are incubated at room temperature in the dark for 90 minutes. Reaction are stopped by vacuum filtration onto 0.3% polyethyleneimine soaked filter mats using Filtermate harvester. Scintilation cocktail is then melted onto microwave-dried filters on a hot plate and the radio activity is counted in Microbia counter.

[7] = target: Sigma non-opioid intracellular receptor 1 (Homo sapiens) (UniProt Q99720)
Sigma non-opioid intracellular receptor 1 (Homo sapiens), sequence (Q99720 whole entry): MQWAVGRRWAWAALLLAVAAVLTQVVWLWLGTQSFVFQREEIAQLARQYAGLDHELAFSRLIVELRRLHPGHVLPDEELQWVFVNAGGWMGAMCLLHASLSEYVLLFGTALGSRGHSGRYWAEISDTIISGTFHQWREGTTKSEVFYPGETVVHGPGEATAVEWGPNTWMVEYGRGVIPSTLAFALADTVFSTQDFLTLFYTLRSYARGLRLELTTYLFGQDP
Description: PDSP Primary Binding target: SIGMAR1 - Compounds are tested at 10 uM concentration, plate are incubated at room temperature in the dark for 90 minutes. Reaction are stopped by vacuum filtration onto 0.3% polyethyleneimine soaked filter mats using Filtermate harvester. Scintilation cocktail is then melted onto microwave-dried filters on a hot plate and the radio activity is counted in Microbia counter.

[8] = target: T3, Alpha-1B adrenergic receptor (Homo sapiens) (UniProt P35368)
T3 sequence (whole entry): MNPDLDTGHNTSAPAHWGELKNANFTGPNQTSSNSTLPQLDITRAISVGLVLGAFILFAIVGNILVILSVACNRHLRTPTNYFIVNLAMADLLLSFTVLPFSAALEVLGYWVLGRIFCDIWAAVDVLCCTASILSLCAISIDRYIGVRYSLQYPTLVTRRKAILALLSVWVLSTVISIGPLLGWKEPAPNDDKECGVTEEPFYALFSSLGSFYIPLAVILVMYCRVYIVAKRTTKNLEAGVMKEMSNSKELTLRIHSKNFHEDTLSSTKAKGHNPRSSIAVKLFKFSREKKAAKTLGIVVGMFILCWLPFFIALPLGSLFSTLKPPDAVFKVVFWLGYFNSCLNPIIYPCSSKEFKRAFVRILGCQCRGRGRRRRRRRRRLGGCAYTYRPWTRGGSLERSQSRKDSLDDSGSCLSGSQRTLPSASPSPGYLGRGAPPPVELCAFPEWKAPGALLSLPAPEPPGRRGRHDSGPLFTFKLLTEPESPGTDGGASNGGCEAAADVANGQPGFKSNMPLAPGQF
Description: PDSP Primary Binding target: ADRA1B - Compounds are tested at 10 uM concentration, plate are incubated at room temperature in the dark for 90 minutes. Reaction are stopped by vacuum filtration onto 0.3% polyethyleneimine soaked filter mats using Filtermate harvester. Scintilation cocktail is then melted onto microwave-dried filters on a hot plate and the radio activity is counted in Microbia counter.

[9] = target: Sodium-dependent dopamine transporter (Homo sapiens) (UniProt Q01959)
Sodium-dependent dopamine transporter (Homo sapiens), sequence (Q01959 whole entry): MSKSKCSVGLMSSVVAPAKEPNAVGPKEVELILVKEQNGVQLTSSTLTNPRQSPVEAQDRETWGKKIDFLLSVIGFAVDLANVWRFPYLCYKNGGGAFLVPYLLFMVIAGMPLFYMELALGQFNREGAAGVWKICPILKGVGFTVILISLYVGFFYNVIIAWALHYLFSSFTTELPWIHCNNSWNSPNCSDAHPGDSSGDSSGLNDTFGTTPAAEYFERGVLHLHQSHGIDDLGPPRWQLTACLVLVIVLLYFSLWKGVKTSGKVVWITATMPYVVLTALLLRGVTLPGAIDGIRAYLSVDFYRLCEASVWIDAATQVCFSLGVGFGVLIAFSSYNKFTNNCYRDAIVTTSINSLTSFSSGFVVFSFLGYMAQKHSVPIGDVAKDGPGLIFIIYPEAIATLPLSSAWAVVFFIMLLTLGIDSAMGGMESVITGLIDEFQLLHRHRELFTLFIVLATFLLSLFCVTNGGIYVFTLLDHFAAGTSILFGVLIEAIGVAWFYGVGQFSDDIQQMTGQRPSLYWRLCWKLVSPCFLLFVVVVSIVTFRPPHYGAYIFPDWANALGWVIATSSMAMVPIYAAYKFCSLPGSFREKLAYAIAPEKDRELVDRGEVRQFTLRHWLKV
Description: PDSP Primary Binding target: SLC6A3 - Compounds are tested at 10 uM concentration, plate are incubated at room temperature in the dark for 90 minutes. Reaction are stopped by vacuum filtration onto 0.3% polyethyleneimine soaked filter mats using Filtermate harvester. Scintilation cocktail is then melted onto microwave-dried filters on a hot plate and the radio activity is counted in Microbia counter.

[10] = target: D(1A) dopamine receptor (Homo sapiens) (UniProt P21728)
D(1A) dopamine receptor (Homo sapiens), sequence (P21728 whole entry): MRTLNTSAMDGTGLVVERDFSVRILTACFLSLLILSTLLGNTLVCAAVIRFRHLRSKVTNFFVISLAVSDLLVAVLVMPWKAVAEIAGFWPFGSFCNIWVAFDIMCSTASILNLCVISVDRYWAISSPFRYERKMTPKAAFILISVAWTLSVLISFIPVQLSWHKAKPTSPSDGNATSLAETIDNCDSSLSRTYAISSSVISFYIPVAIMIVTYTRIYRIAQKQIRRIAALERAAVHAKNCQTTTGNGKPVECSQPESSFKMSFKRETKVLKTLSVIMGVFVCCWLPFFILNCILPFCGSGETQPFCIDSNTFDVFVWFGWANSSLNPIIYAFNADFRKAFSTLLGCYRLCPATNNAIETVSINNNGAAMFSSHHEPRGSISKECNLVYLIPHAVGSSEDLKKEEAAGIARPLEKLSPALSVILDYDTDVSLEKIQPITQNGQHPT
Description: PDSP Primary Binding target: DRD1 - Compounds are tested at 10 uM concentration, plate are incubated at room temperature in the dark for 90 minutes. Reaction are stopped by vacuum filtration onto 0.3% polyethyleneimine soaked filter mats using Filtermate harvester. Scintilation cocktail is then melted onto microwave-dried filters on a hot plate and the radio activity is counted in Microbia counter.

[11] = target: D(2) dopamine receptor (Homo sapiens) (UniProt P14416)
D(2) dopamine receptor (Homo sapiens), sequence (P14416 whole entry): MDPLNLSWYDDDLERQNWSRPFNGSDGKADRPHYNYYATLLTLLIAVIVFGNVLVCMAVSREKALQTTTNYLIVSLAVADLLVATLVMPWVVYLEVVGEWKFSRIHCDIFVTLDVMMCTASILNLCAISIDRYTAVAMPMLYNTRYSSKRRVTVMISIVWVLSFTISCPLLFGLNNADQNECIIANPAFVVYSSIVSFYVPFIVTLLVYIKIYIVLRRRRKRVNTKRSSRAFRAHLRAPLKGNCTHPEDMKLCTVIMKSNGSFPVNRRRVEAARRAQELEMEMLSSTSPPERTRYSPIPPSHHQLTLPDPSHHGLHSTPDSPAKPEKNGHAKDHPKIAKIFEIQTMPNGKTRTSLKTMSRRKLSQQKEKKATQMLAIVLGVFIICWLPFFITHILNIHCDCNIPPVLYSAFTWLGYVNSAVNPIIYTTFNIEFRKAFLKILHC
Description: PDSP Primary Binding target: DRD2 - Compounds are tested at 10 uM concentration, plate are incubated at room temperature in the dark for 90 minutes. Reaction are stopped by vacuum filtration onto 0.3% polyethyleneimine soaked filter mats using Filtermate harvester. Scintilation cocktail is then melted onto microwave-dried filters on a hot plate and the radio activity is counted in Microbia counter.

[12] = target: 5-hydroxytryptamine receptor 1E (Homo sapiens) (UniProt P28566)
5-hydroxytryptamine receptor 1E (Homo sapiens), sequence (P28566 whole entry): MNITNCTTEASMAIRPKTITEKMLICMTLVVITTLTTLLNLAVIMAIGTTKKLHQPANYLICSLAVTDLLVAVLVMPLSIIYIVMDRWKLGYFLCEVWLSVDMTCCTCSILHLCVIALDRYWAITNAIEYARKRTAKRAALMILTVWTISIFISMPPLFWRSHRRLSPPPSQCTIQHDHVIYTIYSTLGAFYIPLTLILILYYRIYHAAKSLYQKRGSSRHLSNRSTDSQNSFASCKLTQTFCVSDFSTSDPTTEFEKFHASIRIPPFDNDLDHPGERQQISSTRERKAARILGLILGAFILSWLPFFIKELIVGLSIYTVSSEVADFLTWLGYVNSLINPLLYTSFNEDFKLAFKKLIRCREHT
Description: PDSP Primary Binding target: HTR1E - Compounds are tested at 10 uM concentration, plate are incubated at room temperature in the dark for 90 minutes. Reaction are stopped by vacuum filtration onto 0.3% polyethyleneimine soaked filter mats using Filtermate harvester. Scintilation cocktail is then melted onto microwave-dried filters on a hot plate and the radio activity is counted in Microbia counter.

[13] = target: T4, 5-hydroxytryptamine receptor 3A (Homo sapiens) (UniProt P46098)
T4 sequence (whole entry): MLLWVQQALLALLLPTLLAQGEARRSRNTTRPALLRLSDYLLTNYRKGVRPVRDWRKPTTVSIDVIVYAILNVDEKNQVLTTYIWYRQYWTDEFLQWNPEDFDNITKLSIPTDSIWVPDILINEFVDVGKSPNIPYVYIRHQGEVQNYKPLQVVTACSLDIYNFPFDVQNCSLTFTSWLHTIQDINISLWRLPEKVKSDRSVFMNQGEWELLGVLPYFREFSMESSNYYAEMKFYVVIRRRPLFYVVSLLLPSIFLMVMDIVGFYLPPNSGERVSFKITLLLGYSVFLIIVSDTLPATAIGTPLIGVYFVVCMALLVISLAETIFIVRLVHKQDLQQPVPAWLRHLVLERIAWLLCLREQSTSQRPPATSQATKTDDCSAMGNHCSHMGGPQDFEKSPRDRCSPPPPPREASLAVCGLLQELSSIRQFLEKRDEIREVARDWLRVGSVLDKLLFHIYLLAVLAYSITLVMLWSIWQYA
Description: PDSP Primary Binding target: HTR3A - Compounds are tested at 10 uM concentration, plate are incubated at room temperature in the dark for 90 minutes. Reaction are stopped by vacuum filtration onto 0.3% polyethyleneimine soaked filter mats using Filtermate harvester. Scintilation cocktail is then melted onto microwave-dried filters on a hot plate and the radio activity is counted in Microbia counter.

[14] = target: Sodium-dependent noradrenaline transporter (Homo sapiens) (UniProt P23975)
Sodium-dependent noradrenaline transporter (Homo sapiens), sequence (P23975 whole entry): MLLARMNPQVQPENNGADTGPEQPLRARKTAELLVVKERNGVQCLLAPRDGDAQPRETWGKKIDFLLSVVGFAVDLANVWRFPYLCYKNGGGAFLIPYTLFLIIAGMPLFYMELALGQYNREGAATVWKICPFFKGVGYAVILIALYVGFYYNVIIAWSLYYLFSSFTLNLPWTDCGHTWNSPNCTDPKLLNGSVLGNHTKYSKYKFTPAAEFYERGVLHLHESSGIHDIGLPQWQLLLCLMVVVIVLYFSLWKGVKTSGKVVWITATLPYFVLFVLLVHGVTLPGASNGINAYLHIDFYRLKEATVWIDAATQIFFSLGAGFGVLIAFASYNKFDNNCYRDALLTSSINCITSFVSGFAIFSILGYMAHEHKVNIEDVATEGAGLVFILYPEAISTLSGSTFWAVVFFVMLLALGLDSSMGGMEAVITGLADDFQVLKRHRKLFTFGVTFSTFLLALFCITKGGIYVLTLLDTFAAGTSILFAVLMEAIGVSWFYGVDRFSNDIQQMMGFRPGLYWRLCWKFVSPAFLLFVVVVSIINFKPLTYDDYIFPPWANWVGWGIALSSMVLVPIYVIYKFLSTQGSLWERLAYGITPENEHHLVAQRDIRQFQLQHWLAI
Description: PDSP Primary Binding target: SLC6A2 - Compounds are tested at 10 uM concentration, plate are incubated at room temperature in the dark for 90 minutes. Reaction are stopped by vacuum filtration onto 0.3% polyethyleneimine soaked filter mats using Filtermate harvester. Scintilation cocktail is then melted onto microwave-dried filters on a hot plate and the radio activity is counted in Microbia counter.

[15] = target: Sodium-dependent serotonin transporter (Homo sapiens) (UniProt P31645)
Sodium-dependent serotonin transporter (Homo sapiens), sequence (P31645 whole entry, looked up): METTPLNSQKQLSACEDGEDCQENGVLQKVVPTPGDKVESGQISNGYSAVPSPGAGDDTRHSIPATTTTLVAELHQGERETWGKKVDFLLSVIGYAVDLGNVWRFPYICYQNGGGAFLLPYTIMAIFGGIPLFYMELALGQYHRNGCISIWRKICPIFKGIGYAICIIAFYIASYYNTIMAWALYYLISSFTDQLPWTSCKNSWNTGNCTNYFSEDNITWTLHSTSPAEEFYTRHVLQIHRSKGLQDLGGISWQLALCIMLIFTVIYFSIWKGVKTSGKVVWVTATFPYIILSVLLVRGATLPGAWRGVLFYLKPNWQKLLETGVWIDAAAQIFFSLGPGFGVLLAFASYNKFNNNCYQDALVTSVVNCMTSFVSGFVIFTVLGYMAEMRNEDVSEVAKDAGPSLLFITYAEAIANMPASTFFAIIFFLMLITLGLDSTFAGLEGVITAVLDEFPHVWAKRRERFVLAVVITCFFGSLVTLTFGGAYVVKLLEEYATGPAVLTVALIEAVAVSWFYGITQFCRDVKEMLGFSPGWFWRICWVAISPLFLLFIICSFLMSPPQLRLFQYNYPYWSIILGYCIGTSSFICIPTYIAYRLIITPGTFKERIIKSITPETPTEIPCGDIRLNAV
Description: PDSP Primary Binding target: SLC6A4 - Compounds are tested at 10 uM concentration, plate are incubated at room temperature in the dark for 90 minutes. Reaction are stopped by vacuum filtration onto 0.3% polyethyleneimine soaked filter mats using Filtermate harvester. Scintilation cocktail is then melted onto microwave-dried filters on a hot plate and the radio activity is counted in Microbia counter.

N#Cc1c(N)nc(SCC(N)=O)c(C#N)c1-c1ccc(OCC2CC2)cc1
inhibition [1]: 34.5% | inhibition [2]: 7.71% | inhibition [3]: 41.5% | inhibition [4]: 22.6% | inhibition [5]: 39% | inhibition [6]: -1.71% | inhibition [7]: 62% | inhibition [8]: -6.52% | inhibition [9]: 3.03%

COc1ccc(C2(O)OC(=O)C(c3ccc4c(c3)OCO4)=C2Cc2cc(OC)c(OC)c(OC)c2)cc1 (stereo unspecified)
inhibition [1]: 1.32% | inhibition [2]: 4.51% | inhibition [3]: 24.4% | inhibition [4]: 11.8% | inhibition [5]: 37% | inhibition [10]: -7.61% | inhibition [11]: -2.26% | inhibition [6]: 4.57% | inhibition [7]: 6.35% | inhibition [8]: -4.11% | inhibition [9]: 27.4% | inhibition [12]: -4.29%

CCCCC#Cc1nc(NC)c2ncn([C@@H]3O[C@H](CO)[C@@H](O)[C@H]3O)c2n1
inhibition [1]: 0.76% | inhibition [2]: -6.71% | inhibition [3]: 16% | inhibition [4]: 20.6% | inhibition [5]: 3.46% | inhibition [13]: 14.1% | inhibition [10]: 0.72% | inhibition [11]: -5.45% | inhibition [7]: -7.49% | inhibition [8]: 8.1% | inhibition [12]: 18.8%

Cc1nc(C(=O)N2CCC[C@H]2Cc2nnc(-c3ccccc3)o2)c(-c2ccccc2F)s1
inhibition [1]: 39.1% | inhibition [2]: 12.1% | inhibition [3]: -4.23% | inhibition [4]: 30.3% | inhibition [5]: 57.6% | inhibition [13]: -1.8% | inhibition [10]: 7.87% | inhibition [11]: 14.6% | inhibition [7]: 35.9% | inhibition [8]: 9.45% | inhibition [9]: 26.1% | inhibition [12]: -8.85%

CC(C)C[C@H](NC(=O)N1CCCCCC1)C(=O)N[C@H](Cc1cn(C)c2ccccc12)C(=O)N[C@H](Cc1ccccn1)C(=O)O
inhibition [1]: 0.19% | inhibition [3]: 18% | inhibition [4]: 5.31% | inhibition [5]: 25.5% | inhibition [13]: -9.08% | inhibition [11]: 2.53% | inhibition [6]: -6.57% | inhibition [7]: 4.12% | inhibition [8]: 10.1% | inhibition [9]: -1.54%

O=C(O)CC/C=C\C[C@@H]1CO[C@H](c2ccccc2Cl)O[C@@H]1c1ccccc1O
inhibition [3]: 31.1% | inhibition [4]: 33.4% | inhibition [5]: 8.35% | inhibition [10]: -0.4% | inhibition [11]: 4.25% | inhibition [7]: -1.8% | inhibition [8]: -9.67% | inhibition [12]: -6.67%

Cc1cc(C)cc(C(=O)N(C)[C@H](Cc2ccc(-c3ccccc3)cc2)C(=O)N[C@@H](Cc2c[nH]c3ccccc23)C(=O)O)c1
inhibition [1]: 1% | inhibition [3]: 34.1% | inhibition [4]: 15.5% | inhibition [5]: 28.8% | inhibition [6]: -8.09% | inhibition [7]: -6.1% | inhibition [8]: 1.27% | inhibition [9]: 32.2%

Cc1c(OCc2cccc(-c3ccc(C(=O)O)cc3)c2)cc2c(c1C)C(=O)C(C1CCCC1)C2 (stereo unspecified)
inhibition [3]: 25.4% | inhibition [4]: -3.97% | inhibition [5]: 17.6% | inhibition [13]: -4.07% | inhibition [10]: -5.51% | inhibition [11]: -2.54% | inhibition [7]: -6.04% | inhibition [8]: 63.1% | inhibition [12]: 6.04%

O=C(Nc1ccc(Cl)cc1)Nc1cccc(-c2cccc(N3CCCC3)n2)c1
inhibition [1]: 18.8% | inhibition [3]: 20% | inhibition [4]: -4.85% | inhibition [5]: 34.9% | inhibition [13]: -5.81% | inhibition [10]: 6.95% | inhibition [11]: 8.25% | inhibition [6]: 3.23% | inhibition [7]: 47.3% | inhibition [9]: 18.3% | inhibition [12]: 2.89%

Nc1nc2c(c(N3CCNCC3)n1)CCC1=C2[C@@H]2CCCC[C@@H]2O1
inhibition [1]: -0.51% | inhibition [2]: -4.34% | inhibition [3]: 43.4% | inhibition [4]: 55% | inhibition [5]: -6.86% | inhibition [13]: 98.1% | inhibition [10]: -6.45% | inhibition [11]: 25.9% | inhibition [6]: 4.22% | inhibition [7]: 86.4% | inhibition [8]: -8.32% | inhibition [12]: 34.5%

CN(C(=O)Cc1ccc(Cl)c(Cl)c1)C(CN1CCCC1)c1cccc(OCC(=O)O)c1 (stereo unspecified)
inhibition [2]: 1.89% | inhibition [3]: 28.1% | inhibition [4]: 47.4% | inhibition [5]: 21.5% | inhibition [13]: 7.24% | inhibition [11]: -3.77% | inhibition [6]: 12.2% | inhibition [7]: 24.1% | inhibition [9]: 26.4% | inhibition [12]: -3.71%

c1ccc(N2CCN(Cc3nc4ccccc4[nH]3)CC2)nc1
inhibition [1]: -4.29% | inhibition [2]: 11.8% | inhibition [3]: 10.1% | inhibition [4]: 15.6% | inhibition [5]: 6.18% | inhibition [13]: -2.37% | inhibition [11]: 22.3% | inhibition [7]: 50.5% | inhibition [9]: 22.6% | inhibition [12]: 6.29%

COc1ccccc1CN[C@H]1C2CCN(CC2)[C@H]1C(c1ccccc1)c1ccccc1
inhibition [1]: -4.3% | inhibition [2]: 19.7% | inhibition [3]: 8.86% | inhibition [4]: 40.4% | inhibition [5]: 30.2% | inhibition [13]: 13.6% | inhibition [11]: 9.32% | inhibition [6]: 11.1% | inhibition [7]: 48.5% | inhibition [8]: 1.04% | inhibition [9]: 40% | inhibition [12]: 5%

CCCSc1nc(N[C@@H]2C[C@H]2c2ccc(F)c(F)c2)c2nnn([C@@H]3C[C@H](OCCO)[C@@H](O)[C@H]3O)c2n1
inhibition [1]: -3.79% | inhibition [2]: 33.2% | inhibition [3]: 3.94% | inhibition [4]: 16.1% | inhibition [5]: 46% | inhibition [13]: 4.33% | inhibition [10]: 24% | inhibition [11]: 29% | inhibition [7]: 35.4% | inhibition [9]: 75.8% | inhibition [12]: 3.9%

CCc1cc(C(C)=O)c(O)cc1OCCCCCC(C)(C)c1nn[nH]n1
inhibition [1]: -4.28% | inhibition [2]: 8.4% | inhibition [3]: 6.38% | inhibition [4]: 17.1% | inhibition [5]: -1.68% | inhibition [13]: -9.38% | inhibition [10]: 1.9% | inhibition [11]: 8.34% | inhibition [6]: 14% | inhibition [7]: 61.4% | inhibition [8]: -3.95% | inhibition [9]: 32.8%

Cc1ccccc1C(=O)Nc1ccc(C(=O)N2CCCC(O)c3cc(Cl)ccc32)c(C)c1 (stereo unspecified)
inhibition [1]: -6.02% | inhibition [2]: 11.7% | inhibition [4]: 70.8% | inhibition [14]: 20.8% | inhibition [5]: 35.6% | inhibition [13]: -5.18% | inhibition [10]: 9.57% | inhibition [11]: 9.21% | inhibition [15]: 10.7% | inhibition [6]: 33.8% | inhibition [7]: 28.2% | inhibition [8]: 0.66% | inhibition [9]: 21.9% | inhibition [12]: 0.51%
